Earlier results, collected in patent US20030069213A1, “ORAL PREPARATION” (priority 1997, published 2003).
Converted amounts (≈) assume the structure as drawn. Structures can show the parent of a compound that is named as a salt. Where two headings read alike, the source gives them in different places. Values belong to the compound of their own block, whether it stands above or below them.

Assays:
[1] = dissolved in water
[2] = not given; remark: listed apart in the source

- pKa (amino group): 10.65
- pKa (carboxyl group): 4.33
SMILES: NC[C@H]1CC[C@H](C(=O)O)CC1 [tranexamic acid]

- pKa: 6.93
SMILES: Clc1ccccc1CN1CCc2sccc2C1 [ticlopidine hydrochloride]

- heat of dissolution [1]: -35 cal/g
- heat of dissolution ([1]; listed as Xylitol): Xylitol (−35) cal/g
SMILES: OC[C@@H](O)[C@H](O)[C@@H](O)CO [xylitol]

Second part, the compound before the results:

SMILES: OC[C@@H](O)[C@@H](O)CO [erythritol]
- heat of dissolution [1]: -42.9 cal/g

SMILES: OC[C@@H](O)[C@@H](O[C@H]1O[C@H](CO)[C@@H](O)[C@H](O)[C@H]1O)[C@H](O)[C@@H](O)CO [maltitol]
- heat of dissolution [1]: -5.5 cal/g
- heat of dissolution ([1]; listed as Maltitol): Maltitol (−5.5) cal/g

SMILES: NC[C@H]1CC[C@H](C(=O)Oc2ccc(CCC(=O)O)cc2)CC1 [cetraxate hydrochloride]
- pKa (amino group): 10.5
- pKa (carboxyl group): 4.5
- solubility in water ([2]; pH 2.8, 22° C.): 27 mg/mL
- solubility in water ([2]; pH 5.9, 22° C.): 0.4 mg/mL

SMILES: OC[C@@H](O)[C@@H](O)[C@H](O)[C@H](O)CO [mannitol]
- heat of dissolution [1]: -28.9 cal/g
- heat of dissolution ([1]; listed as D-Mannitol): (−28.9) cal/g

SMILES: OC[C@@H](O)[C@@H](O)[C@H](O)[C@@H](O)CO [sorbitol]
- heat of dissolution [1]: -24.1 cal/g
- heat of dissolution ([1]; listed as D-Sorbitol): (−24.1) cal/g

SMILES: OC[C@H]1O[C@@](CO)(O[C@H]2O[C@H](CO)[C@@H](O)[C@H](O)[C@H]2O)[C@@H](O)[C@@H]1O [sucrose]
- heat of dissolution [1]: -4.5 cal/g
- heat of dissolution ([1]; listed as Sucrose): Sucrose (−4.5) cal/g

SMILES: CN/C(=N/CCSCc1nc[nH]c1C)NC#N [cimetidine]
- pKa: 7.1
- solubility in water ([2]; pH 6.5, 25° C.): 30 mg/mL (≈ 119 mM)
- solubility in water ([2]; pH 8.3, 25° C.): 5.3 mg/mL (≈ 21 mM)
